Values after ≈ are worked out from the molar mass of the structure shown. Values joined by “and” are separate entries in the source; they are usually repeats but may differ in a detail not shown here. Equal values may be shown once.
Columns and labels:
[1] = test system: Neisseria gonorrhoeae 111076-4; test: MIC, standard agar-dilution test; assay type: cell-based; settings: Table XI, sodium salt
[2] = test system: Eubacterium aerofaciens; test: MIC anaerobic bacteria, standard agar-dilution test; assay type: cell-based
[3] = test system: Viridans Streptococcus 9943; test: MIC, standard broth-dilution test; assay type: cell-based; settings: Table XII, sodium salt
[4] = test system: Fusobacterium necrophorum; test: MIC anaerobic bacteria, standard agar-dilution test; assay type: cell-based
[5] = test system: Streptococcus pneumoniae; test: MIC, agar dilution (Table XV); assay type: cell-based
[6] = test system: Bacteroides fragilis; test: MIC anaerobic bacteria, standard agar-dilution test; assay type: cell-based
[7] = test system: Streptococcus pyogenes C203; test: MIC, standard broth-dilution test; assay type: cell-based; settings: Table XII, sodium salt
[8] = test system: Streptococcus faecalis (Guze); test: In vitro susceptibility (MIC) of the S. faecalis Guze strain; assay type: cell-based; settings: Table XVI
[9] = test system: Streptococcus faecalis (Guze); test: Streptococcus faecalis descending rat pyelonephritis test; assay type: in vivo, rat (female albino, Cox-Wistar); settings: 1.0 mg/kg × 7, subcutaneous
Procedure: In this test, the bacterial culture used was Streptococcus faecalis (Guze). The culture was grown on Trypticase soy agar (BBL), suspended in brain heart infusion broth (BBL), divided into 0.2-ml portions, and frozen in liquid nitrogen. Bacterial suspensions for rat inoculations were prepared daily by seeding a 50-ml flask of trypticase soy broth (BBL) from a frozen ampoule and growing the culture overnight at 37° C. on a shaker. The S. faecalis culture was diluted to 5×10^8 colony-forming units per ml. Test compounds were injected subcutaneously once daily for seven days. All compounds were suspended in 0.125% carboxymethylcellulose.
The experimental rat infections were accomplished by the following procedure. Female, random-bred albino rats (Cox-Wistar) weighing 190 to 210 g were anesthetized by intraperitoneal injection of 12 mg of sodium methohexital supplemented as necessary. The experimental pyelonephritis model was based on the studies of Guze and Beeson in which the left ureter was occluded for 20 min, followed by injection of 0.5 ml of the test organism in the femoral vein. Antimicrobial therapy was commenced 4 to 5 hrs postinfection. Four hours after the last treatment the rats were sacrificed, and the left kidney was removed and homogenized in a Duall grinder containing 9 ml of physiological saline. This represented a 10^-1 dilution of the kidney tissue. Additional 10-fold dilutions in saline were based on the anticipated bacterial cells present in the tissue homogenate. Finally, duplicate agar pour plates were made from several of these dilutions, and the plates were incubated overnight at 37° C. The therapeutic results were expressed in two ways: (i) the percentage of rats with kidney counts of less than 10^2 per g of kidney tissue, referred to as "cures," and (ii) the percentage of rats with at least a 4-log10 reduction in bacterial titer compared with infected control kidneys. Control rats were treated with 0.125% carboxymethylcellulose only. Viable cell counts in kidney tissue from control rats with S. faecalis ranged from 1.2×10^8 to 4.6×10^8 per g of homogenized tissue.

[10] = Toxicity (LD50) in rat; assay type: in vivo; settings: IV
[11] = test system: Viridans Streptococcus 9943; test: MIC, standard agar-dilution test; assay type: cell-based; settings: Table XI, sodium salt
[12] = test system: Streptococcus pneumoniae Park I; test: MIC, standard broth-dilution test; assay type: cell-based; settings: Table XII, sodium salt
[13] = test system: Clostridium perfringens; assay type: cell-based; settings: anaerobic, agar-dilution
[14] = test system: Staphylococcus aureus 3055; test: MIC, standard broth-dilution test; assay type: cell-based; settings: Table XII, sodium salt
[15] = test system: Streptococcus pyogenes; test: MIC, agar dilution (Table XV); assay type: cell-based
[16] = test system: Peptococcus prevoti; test: MIC anaerobic bacteria, standard agar-dilution test; assay type: cell-based
[17] = test system: Staphylococcus aureus 3055; test: MIC, standard agar-dilution test; assay type: cell-based; settings: Table XI, sodium salt
[18] = test system: Peptostreptococcus anaerobius; test: MIC anaerobic bacteria, standard agar-dilution test; assay type: cell-based
[19] = test system: Clostridium septicum; test: as above; assay type: cell-based
[20] = test system: pathogenic organisms, particularly gram-positive bacteria; test: Inhibition of growth of pathogenic organisms; assay type: cell-based
[21] = test system: Staphylococcus aureus; test: MIC, agar dilution (Table XV); assay type: cell-based
Description: ^1 MIC = minimum inhibitory concentration (μg/ml), agar dilution

[22] = test system: Fusobacterium symbiosum; test: MIC anaerobic bacteria, standard agar-dilution test; assay type: cell-based
[23] = test system: Propionibacterium acnes; test: as above; assay type: cell-based
[24] = test system: Streptococcus pyogenes C203; test: MIC, standard agar-dilution test; assay type: cell-based; settings: Table XI, sodium salt
[25] = test system: Streptococcus pneumoniae; test: Experimental bacterial infection in mice, ED50; assay type: in vivo; settings: two doses, subcutaneous administration
Procedure: (§1) When two doses of test compound were administered to mice in illustrative infections, the activity observed was measured as an ED50 value [effective dose in mg/kg to protect fifty percent of the test animals: See Warren Wick, et al., J. Bacteriol. 81, 233-235 (1961)].

[26] = test system: Streptococcus pyogenes; test: Experimental bacterial infection in mice, ED50; assay type: in vivo; settings: two doses
Procedure: as §1

[27] = test system: Staphylococcus aureus; test: Experimental bacterial infection in mice, ED50; assay type: in vivo; settings: two doses, subcutaneous administration
Procedure: as §1

[28] = Electrometric titration in 66% aqueous dimethylformamide; assay type: physicochemical; settings: 66% DMF; Na salt; factors: two determinations
[29] = test system: Peptostreptococcus intermedius; test: MIC anaerobic bacteria, standard agar-dilution test; assay type: cell-based
[30] = test system: Streptococcus pneumoniae Park I; test: MIC, standard agar-dilution test; assay type: cell-based; settings: Table XI, sodium salt
[31] = test system: Group D Streptococcus 282; test: MIC, standard broth-dilution test; assay type: cell-based; settings: Table XII, sodium salt
[32] = Toxicity (LD50) in mouse; assay type: in vivo
[33] = test system: Micrococcus luteus; test: Bioassay, paper-disc agar-diffusion; settings: Na salts; Table VIII
[34] = test system: Actinomyces isaelii; test: MIC anaerobic bacteria, standard agar-dilution test; assay type: cell-based
[35] = test system: Group D Streptococcus 282; test: MIC, standard agar-dilution test; assay type: cell-based; settings: Table XI, sodium salt
[36] = test system: Peptococcus asaccharolyticus; test: MIC anaerobic bacteria, standard agar-dilution test; assay type: cell-based

Row | SMILES | MIC [1] [µg/mL] | MIC [2] [µg/mL] | MIC [3] [µg/mL] | MIC [4] [µg/mL] | MIC [5] [µg/mL] | MIC [6] [µg/mL] | MIC [7] [µg/mL] | MIC [8] [µg/mL] | Percent of Rats Cured [9] [%] | Percent of Rats with a 4-Log Titer Decrease [9] [%] | LD50 [10] [mg/kg] | MIC [11] [µg/mL] | MIC [12] [µg/mL] | MIC [13] [µg/mL] | MIC [14] [µg/mL] | MIC [15] [µg/mL] | MIC [16] [µg/mL] | MIC [17] [µg/mL] | MIC [18] [µg/mL] | MIC [19] [µg/mL] | further results
1 | CC(C)CCCCCCCCC(=O)N[C@@H](Cc1c[nH]c2ccccc12)C(=O)N[C@@H](CC(N)=O)C(=O)N[C@@H](CC(=O)O)C(=O)N[C@@H]1C(=O)NCC(=O)N[C@@H](CCCN)C(=O)N[C@@H](CC(=O)O)C(=O)N[C@H](C)C(=O)N[C@@H](CC(=O)O)C(=O)NCC(=O)N[C@H](CO)C(=O)N[C@@H]([C@H](C)CC(=O)O)C(=O)N[C@@H](CC(=O)c2ccccc2N)C(=O)O[C@@H]1C [Factor C2] | 4.0 | 8 (≈ 4.85 µM) | 16.0 | 64 (≈ 38.8 µM) | 0.13 (≈ 0.0788 µM) | > 128 | 0.25 | 0.25 (≈ 0.152 µM) | 89 | 100 | 204 ± 17 | 1.0 | 1.0 | 8 (≈ 4.85 µM) | 0.5 | 0.13 (≈ 0.0788 µM) | 1.0 (≈ 0.607 µM) | 0.13 | 1.0 (≈ 0.607 µM) | 1.0 (≈ 0.607 µM) | growth inhibition [20]: inhibit the growth of certain pathogenic organisms, particularly gram-positive bacteria; MIC [21]: 0.13 µg/mL (≈ 0.0788 µM); MIC [22]: > 128 µg/mL; MIC [23]: 2 µg/mL (≈ 1.21 µM); MIC [24]: 0.13 µg/mL; ED50 [25]: 0.14 mg/kg; ED50 [26]: 0.032 mg/kg; ED50 ([26]; oral administration): 59 mg/kg; ED50 [27]: 0.16 mg/kg; pKa (first group) [28]: 5.8 and 5.93; pKa (second group) [28]: 7.6 and 7.63; MIC [29]: 1.0 µg/mL (≈ 0.607 µM); MIC [30]: 0.25 µg/mL; MIC [31]: 1.0 µg/mL; LD50 ([32]; IV): 150 to 250 mg/kg; LD50 ([32]; SC): 175 mg/kg; Bioassay (Micrococcus luteus) [33]: 1390 units/mg; MIC [34]: 1.0 µg/mL (≈ 0.607 µM); MIC [35]: 0.25 µg/mL; MIC [36]: 2 µg/mL (≈ 1.21 µM)
2 | CCC(C)CCCCCCCCC(=O)N[C@@H](Cc1c[nH]c2ccccc12)C(=O)N[C@@H](CC(N)=O)C(=O)N[C@@H](CC(=O)O)C(=O)N[C@@H]1C(=O)NCC(=O)N[C@@H](CCCN)C(=O)N[C@@H](CC(=O)O)C(=O)N[C@H](C)C(=O)N[C@@H](CC(=O)O)C(=O)NCC(=O)N[C@H](CO)C(=O)N[C@@H]([C@H](C)CC(=O)O)C(=O)N[C@@H](CC(=O)c2ccccc2N)C(=O)O[C@@H]1C (some centres unmarked) [Factor C3] | 4.0 | 4 (≈ 2.41 µM) | 32.0 | 32 (≈ 19.2 µM) | 0.03 (≈ 0.018 µM) | > 128 | 0.13 | 0.13 (≈ 0.0782 µM) | 78 | 78 | < 160 | 0.5 | 0.5 | 8 (≈ 4.81 µM) | 0.13 | 0.06 (≈ 0.0361 µM) | < 0.5 | 0.06 | 1.0 (≈ 0.601 µM) | 1.0 (≈ 0.601 µM) | growth inhibition [20]: inhibit the growth of certain pathogenic organisms, particularly gram-positive bacteria; MIC [21]: 0.06 µg/mL (≈ 0.0361 µM); MIC [22]: 16 µg/mL (≈ 9.62 µM); MIC [23]: 1.0 µg/mL (≈ 0.601 µM); MIC [24]: 0.25 µg/mL; ED50 [25]: 0.09 mg/kg; ED50 [26]: 0.032 mg/kg; ED50 ([26]; oral administration): 66 mg/kg; ED50 [27]: 0.08 mg/kg; pKa (first group) [28]: 5.73 and 5.75; pKa (second group) [28]: 7.54 and 7.58; MIC [29]: < 0.5 µg/mL; MIC [30]: 0.13 µg/mL; MIC [31]: 0.13 µg/mL; LD50 ([32]; IV): < 50 mg/kg; LD50 ([32]; SC): 70 to 75 mg/kg; Bioassay (Micrococcus luteus) [33]: 803 units/mg; MIC [34]: 1.0 µg/mL (≈ 0.601 µM); MIC [35]: 0.13 µg/mL; MIC [36]: 1.0 µg/mL (≈ 0.601 µM)
